From US20040180862A1, “Compositions and methods for inhibiting bone resorption” (priority 2001, published 2004) come the findings set out here.

Entries after “also recorded” stand apart in the source; their conditions may differ. Like-named read-outs stand apart in the source and are kept apart here.

The test system of series [1] is skin. Description: Skin irritation after subcutaneous injection, histology (hematoxylin and eosin, affected area). As to conditions: 5 days. It counts as in vivo, Rats.
Method: Skin was harvested after necropsy, fixed with formalin, thin-sectioned and stained with hematoxylin and eosin. Area was determined by measuring the thickness and length of each affected area and is represented vs. the H2O control.
Series [2] deals with skin. The settings on record: subcutaneous, 5 days; for effect of coadministered Zara-A on ALN-induced skin irritation / thickening: ALN 0.5 mg/kg with Zara-A 3 μg/kg; for effect of coadministered Zara-A on ALN-induced skin irritation / thickening / effect of coadministered Zara-A on RIS-induced skin irritation / thickening: P≦0.01; for effect of coadministered Zara-A on RIS-induced skin irritation / thickening: RIS 0.5 mg/kg with Zara-A 3 μg/kg.

For series [3], the system named is Ch1.Es esophageal fibroblasts. Description: Protein isoprenylation in Ch1.Es fibroblasts (immunoblot with anti-hDNAJ and anti-Rap1A markers). It counts as cell-based. The procedure: Cells were treated for 24 hours and protein lysates were analyzed for suppression of protein isoprenylation. Markers included either anti-hDNAJ, a farnesylated protein that migrates more slowly when farnesylation is absent (two bands observed) or anti-Rap1A, which we have shown previously to bind preferentially to Rap1A if isoprenylation is blocked (presence of a band indicates absence of protein geranylgeranylation) (See Reszka, A. A., Halasy-Nagy, J. and Rodan, G. A. Molecular Pharmacology 59:193-202, 2001).
(A) Cells pretreated for 24 hours with nothing or the squalene synthase inhibitor, zaragozic Acid A (Zara-A) at 3 μM (three lanes indicated).
Cells were treated for 24 hours and protein lysates were analyzed for suppression of protein isoprenylation. Markers included either anti-hDNAJ, a farnesylated protein that migrates more slowly when farnesylation is absent (two bands observed) or anti-Rap1A, which we have shown previously to bind preferentially to Rap1A if isoprenylation is blocked (presence of a band indicates absence of protein geranylgeranylation. See FIG. 1.
(A) Cells pretreated for 24 hours with nothing or the squalene synthase inhibitor, Zaragozic Acid A (Zara-A) at 3 μM (three lanes indicated).

In series [4] the test system is Ch1.Es esophageal fibroblasts. Description: Apoptosis in Ch1.Es cells (cell rounding and detachment from the dish). It is filed as cell-based. The settings on record: for suppression of ALN-induced apoptosis in absence of lipoprotein / suppression of RIS-induced apoptosis in absence of lipoprotein: FIG. 3: LPDS, Zara-A 10 μM; for suppression of ALN-induced apoptosis in absence of lipoprotein: ALN 300 μM 24 hours; for suppression of RIS-induced apoptosis in absence of lipoprotein: RIS 300 μM 24 hours; for induction of apoptosis: bisphosphonate 300 μM, 24 hours. The procedure:
Apoptosis is observed as cell rounding and detachment from the dish.
Ch1.Es cells were grown for 24 hours in either fetal bovine serum (FBS) (top panels) or lipoprotein-deficient […] (LPDS) in the absence (middle) or presence (bottom) of Zara-A (10 μM). […] (300 μM). Phenotypes were scored as in FIG. 2. The suppression of apoptosis is near complete after inclusion of Zara-A.

The test system of series [5] is Ch1.Es esophageal fibroblasts. In words: Activation of pro-apoptotic kinases (in-gel kinase assay, phospho-specific immunoblotting). As to conditions: 300 μM, 24 hours. It is filed as cell-based. The procedure: Cell lysates were analyzed using an in-gel kinase assay (top) or by immuno-blotting with anti-phospho-specific antibodies recognizing active MAP kinases (Erk1 and 2), p38, or Jun N-terminal kinase (Jnk).

Where [6] appears, read: listed as squalene synthase inhibitor.
[7] abbreviates: Zara-A 0.1-10 μM pretreated 24 hours, then ALN 300 μM 24 hours.
Where [8] appears, read: ALN 300 μM, 24 hours, absence of Zara-A.

Consider `C=C(CC[C@]12O[C@H](C(=O)O)[C@@](O)(C(=O)O)[C@](C(=O)O)(O1)[C@H](OC(=O)/C=C/[C@@H](C)C[C@@H](C)CC)[C@H]2O)[C@@H](OC(C)=O)[C@H](C)Cc1ccccc1` [Zara-A, zaragozic Acid A], for which the “suppression of ALN-induced skin irritation” value in the series with skin [1] (FIG. 6: ALN 0.5 mg/kg with Zara-A 3 μg/kg) is on record as “suppresses”. In the series on skin [2], the “effect of coadministered Zara-A on ALN-induced skin irritation / thickening” value is given as “significantly reduced” and the “effect of coadministered Zara-A on RIS-induced skin irritation / thickening” value is “significantly reduced”. In addition, in the series with skin [2] (setting [6]), the “effect of coadministered Zara-A on ALN-induced skin irritation / thickening” value was “suppresses” and the “effect of coadministered Zara-A on RIS-induced skin irritation / thickening” value is reported as “suppresses”. For the same compound, the “effect of Zara-A pretreatment on ALN inhibition of Rap1A geranylgeranylation” value in series [3] (Zara-A 3 μM pretreated 24 hours, then ALN 300 μM 24 hours) is reported as “reduced; also recorded: diminished”. In series [3] (setting [7]), the “effect of Zara-A on capacity of ALN to inhibit Rap1A geranylgeranylation” value was “dose-dependently reduces; also recorded: dose-dependently diminished” and the “effect of Zara-A on capacity of ALN to inhibit hDNAJ farnesylation” value is “dose-dependently reduces; also recorded: dose-dependently diminished”. Further, the “suppression of ALN-induced apoptosis” value in series [4] (FIG. 2: Zara-A 24 hours, then ALN 300 μM 24 hours) is given as “suppression”. Further, in series [4], the “suppression of ALN-induced apoptosis in absence of lipoprotein” value is given as “near complete” and the “suppression of RIS-induced apoptosis in absence of lipoprotein” value was “near complete”. In series [4] (setting [6]), the “suppression of ALN-induced apoptosis in absence of lipoprotein” value is on record as “maximally suppresses” and the “suppression of RIS-induced apoptosis in absence of lipoprotein” value is recorded as “maximally suppresses”.

Turning to `NCCCC(O)(P(=O)(O)O)P(=O)(O)O` [ALN, 4-amino-1-hydroxybutylidene-1,1-bisphosphonic acid monosodium trihydrate], the “activation of pro-apoptotic kinases” value in series [5] is “activate”. In series [3] (setting [8]), the “inhibition of Rap1A geranylgeranylation” value is given as “strongly inhibits” and the “inhibition of hDNAJ farnesylation” value is on record as “strongly inhibits”. Moreover, the induction of apoptosis entry in series [4] is “induced”.

Regarding `O=P(O)(O)C(O)(Cc1cccnc1)P(=O)(O)O` [RIS, 1-hydroxy-2-(3-pyridinyl)-ethylidene-1,1-bisphosphonic acid], the skin irritation result in the series on skin [1] (0.5 mg/kg) is on record as “Skin irritation induced”. Further, the “activation of pro-apoptotic kinases” value in series [5] was “activate”. In addition, the “volume of affected skin area” value in the series on skin [2] (0.5 mg/kg, vehicle control 50-100) came to 240 mm^3. In addition, the induction of apoptosis entry in series [4] is on record as “induced”.
